Source: PMC8188212, “Multi‐Arm PEG/Peptidomimetic Conjugate Inhibitors of DR6/APP Interaction Block Hematogenous Tumor Cell Extravasation” (Advanced Science, 2021)
Square brackets hold non-standard residues; d marks the D form. Ends that are not written are not given here. Peptide text beside a SMILES is read from it.

What follows are compounds tested against T1, DR6 protein (Homo sapiens, UniProt O75509) (assay: KD of DR6-targeting peptides for binding to DR6 protein by MST). Conditions: Tables S1 and S2, average of three independent experiments in triplicate, NB = No binding, read-out: KD ± SEM.
T1 construct: purchased Sino Biology, Inc. (Shanghai, China)
T1 sequence (O75509 42-655): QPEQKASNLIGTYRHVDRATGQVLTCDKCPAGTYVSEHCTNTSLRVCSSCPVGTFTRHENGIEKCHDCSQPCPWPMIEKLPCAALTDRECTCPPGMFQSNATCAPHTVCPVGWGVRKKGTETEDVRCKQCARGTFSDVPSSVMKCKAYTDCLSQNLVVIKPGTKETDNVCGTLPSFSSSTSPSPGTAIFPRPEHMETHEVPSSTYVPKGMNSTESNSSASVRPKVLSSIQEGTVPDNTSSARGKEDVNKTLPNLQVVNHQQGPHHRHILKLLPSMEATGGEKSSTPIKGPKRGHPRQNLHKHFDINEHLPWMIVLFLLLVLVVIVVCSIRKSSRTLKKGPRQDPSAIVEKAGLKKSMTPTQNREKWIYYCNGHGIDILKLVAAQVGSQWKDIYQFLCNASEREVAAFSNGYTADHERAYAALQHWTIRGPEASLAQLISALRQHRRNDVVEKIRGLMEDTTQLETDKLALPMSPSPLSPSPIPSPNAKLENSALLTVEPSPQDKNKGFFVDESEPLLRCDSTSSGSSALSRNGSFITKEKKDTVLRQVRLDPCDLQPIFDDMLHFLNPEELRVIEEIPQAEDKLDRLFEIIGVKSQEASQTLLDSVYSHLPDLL
Protocol: For labeling DR6 protein with Red‐tris‐NTA second‐generation dye, equal volume of DR6 protein (200 × 10^–9 M) and dye (100 × 10^–9 M) were mixed. The solution was incubated for 30 min at room temperature and centrifuged for 10 min at 4 ℃ and 15 000 × g. The DR6 protein was labeled and ready for the binding assay. Prepare 25 µL of the DR6‐targeting peptides at 20 × 10^–6 M and add 10 µL of the PBS‐T into the PCR tubes 2–12. Transfer 20 µL DR6‐targeting peptides into the PCR tube 1 and then transfer 10 µL of the DR6‐targeting peptides from tube 1 to tube 2 with a pipette and mix by pipetting up and down multiple times. Transfer 10 µL to tube 3 and mix. Repeat the procedure for tube 4–12. Add 10 µL of labeled protein to each tube (1–12) and mix by pipetting. The final DR6 protein concentration was 50× 10^−9 M. Load the capillaries and measure the samples by NanoTemper Monolith NT.015.^[ ^51 , ^52 ^]

Row | Compound | Kd
1 | C[C@H](O)[C@@H](NC(=O)[C@@H](CC(=O)O)NC(=O)[C@H](NC(=O)[C@@H](CC(N)=O)NC(=O)[C@H](N)CCC(N)=O)[C@H](C)O)C(=O)N[C@H](Cc1c[nH]cn1)C(=O)N[C@H](CO)C(=O)O [AHP-DRI-13] (H-[dQ][dN][dT][dD][dT][dH][dS]-OH) | 0.8627 ± 0.00659 µM
2 | AFMYSLP [AHP-14] | 0.457 ± 0.0116 µM
3 | AGHFSLW [AHP-21] | > 10 µM
4 | ANLLYES [AHP-04] | > 10 µM
5 | FQFRLQS [AHP-02] | > 10 µM
6 | GFSHYFP [AHP-11] | > 10 µM
7 | HSTAPQL [AHP-08] | > 10 µM
8 | HSYPYTQ [AHP-17] | > 10 µM
9 | KFLQVTN [AHP-16] | > 10 µM
10 | KLGPVCP [AHP-06] | > 10 µM
11 | KLVPEPS [AHP-09] | > 10 µM
12 | LMTTKSD [AHP-22] | > 10 µM
13 | LPRSPLA [AHP-20] | > 10 µM
14 | MPPFRHD [AHP-19] | > 10 µM
15 | TIPKYER [AHP-15] | > 10 µM
16 | TTYMPKM [AHP-18] | > 10 µM
17 | YSLHASP [AHP-07] | > 10 µM
